Data taken from ChEMBL document CHEMBL1201862, “PubChem BioAssay data set” (2004).
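48-hour exposure; five concentrations; linearly interpolated endpoints. Here, GI50 denotes the concentration required for 50% inhibition of growth.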 Calls of active or inactive are those of the source. Rule as the data show it: active = GI50 up to about 1.1 µM and inactive = higher.

Experiments:
Test in all cases: DTP human tumour cell line panel, 48 h
[1] = test system: A549
[2] = test system: CAKI-1
[3] = test system: DU-145
[4] = test system: EKVX
[5] = test system: HCT-15
[6] = test system: IGROV-1
[7] = test system: KM12
[8] = test system: LOX IMVI
[9] = test system: MDA-MB-231
[10] = test system: MDA-N
[11] = test system: MOLT-4
[12] = test system: NCI-H226
[13] = test system: OVCAR-4
[14] = test system: RPMI-8226
[15] = test system: SN12C
[16] = test system: SNB-19
[17] = test system: SNB-75
[18] = test system: T47D
[19] = test system: HL-60
[20] = test system: RXF 393

| Structure (SMILES) | GI50 [1] | GI50 [2] | GI50 [3] | GI50 [4] | GI50 [5] | GI50 [6] | GI50 [7] | GI50 [8] | GI50 [9] | GI50 [10] | GI50 [11] | GI50 [12] | GI50 [13] | GI50 [14] | GI50 [15] | GI50 [16] | GI50 [17] | GI50 [18] | GI50 [19] | GI50 [20] |
| --- | --- | --- | --- | --- | --- | --- | --- | --- | --- | --- | --- | --- | --- | --- | --- | --- | --- | --- | --- | --- |
| CCOc1nc2sc3c(c2c(=O)n1CCSSCCn1c(OCC)nc2sc4c(c2c1=O)CCCC4)CCCC3 | > 100 µM (inactive) | > 100 µM (inactive) | > 100 µM (inactive) | > 100 µM (inactive) | > 100 µM | > 100 µM (inactive) | > 100 µM (inactive) | > 100 µM (inactive) | > 100 µM (inactive) | > 100 µM (inactive) | > 100 µM (inactive) | 56.4 µM (inactive) | > 100 µM (inactive) | > 100 µM (inactive) | > 100 µM (inactive) | > 100 µM (inactive) | > 100 µM (inactive) | > 100 µM (inactive) |  |  |
| C=C(C)[C@@H]1CCC2=C[C@H](C/C(C)=C\C3=CC(C)=C(O3)[C@H]1O)OC2=O | 88.7 µM (inactive) | > 100 µM (inactive) | > 100 µM (inactive) | > 100 µM (inactive) | > 100 µM | 93.1 µM (inactive) | > 100 µM (inactive) | > 100 µM (inactive) | 25.8 µM (inactive) |  | > 100 µM (inactive) | 36.1 µM (inactive) | 60 µM (inactive) | > 100 µM (inactive) | 71.8 µM (inactive) | > 100 µM (inactive) | > 100 µM (inactive) | 41.9 µM (inactive) | > 100 µM (inactive) | 35.6 µM (inactive) |
| Cc1ccc(C(=O)N/N=C(\N=N\c2ccccc2C(=O)O)c2ccc(N(C)C)cc2)cc1 | 98.2 µM (inactive) | > 100 µM (inactive) | > 10 µM (inactive) | 75.2 µM (inactive) | 64.7 µM | > 100 µM (inactive) | 42.9 µM (inactive) | > 100 µM (inactive) | > 100 µM (inactive) | 19 µM (inactive) | 71.4 µM (inactive) | > 100 µM (inactive) | 64.7 µM (inactive) | > 100 µM (inactive) | > 100 µM (inactive) | 55.3 µM (inactive) |  |  | 53.5 µM (inactive) |  |
| Cc1oc2c(c1C)S(=O)(=O)C(C#N)=C(N(C)C)N2 | > 100 µM (inactive) | > 100 µM (inactive) | > 100 µM (inactive) | > 100 µM (inactive) | > 100 µM | > 100 µM (inactive) | > 100 µM (inactive) | > 100 µM (inactive) | > 100 µM (inactive) | > 100 µM (inactive) | > 100 µM (inactive) | > 100 µM (inactive) | > 100 µM (inactive) | > 100 µM (inactive) | > 100 µM (inactive) | > 100 µM (inactive) | > 100 µM (inactive) | > 100 µM (inactive) |  |  |
| Nc1nc2ccc(Sc3ccc4nc(N)[nH]c(=O)c4c3)cc2c(=O)[nH]1 | > 100 µM (inactive) | > 100 µM (inactive) | > 100 µM (inactive) | > 100 µM (inactive) | > 100 µM | 61.1 µM (inactive) | > 100 µM (inactive) |  | 67.3 µM (inactive) |  | > 100 µM (inactive) | 14.1 µM (inactive) | > 100 µM (inactive) | > 100 µM (inactive) | > 100 µM (inactive) | > 100 µM (inactive) | > 100 µM (inactive) | > 100 µM (inactive) | > 100 µM (inactive) | > 100 µM (inactive) |
| Clc1ccc(-c2c3nc(c(-c4ccc(Cl)cc4)c4ccc([nH]4)c(-c4ccc(Cl)cc4)c4nc(c(-c5ccc(Cl)cc5)c5ccc2[nH]5)C=C4)C=C3)cc1 | > 100 µM (inactive) | > 100 µM (inactive) |  | > 100 µM (inactive) | > 100 µM | > 100 µM (inactive) | > 100 µM (inactive) | > 100 µM (inactive) | > 100 µM (inactive) |  | > 100 µM (inactive) |  | > 100 µM (inactive) | > 100 µM (inactive) | > 100 µM (inactive) | > 100 µM (inactive) | 20.8 µM (inactive) | > 100 µM (inactive) | > 100 µM (inactive) |  |
| Cc1cc2nc3c(C#N)c(-c4ccccc4)cc(Nc4ccc(Cl)cc4)n3c2cc1C | > 100 µM (inactive) | > 100 µM (inactive) |  | 8.22 µM (inactive) | > 100 µM |  | 59.4 µM (inactive) | > 100 µM (inactive) | > 100 µM (inactive) | > 100 µM (inactive) |  | > 100 µM (inactive) | > 100 µM (inactive) | 5.6 µM (inactive) | > 100 µM (inactive) | > 100 µM (inactive) | > 100 µM (inactive) | 6.24 µM (inactive) |  | > 100 µM (inactive) |
| O=C1/C(=C/c2cccc(Br)c2)CCc2ccccc21 | 16.4 µM (inactive) | 16 µM (inactive) | 17.2 µM (inactive) | 17.6 µM (inactive) | 11.5 µM | 11.4 µM (inactive) | 4.02 µM (inactive) | 12.8 µM (inactive) | 20.4 µM (inactive) | 10.8 µM (inactive) | 10.2 µM (inactive) | 15.2 µM (inactive) | 13.1 µM (inactive) | 2.99 µM (inactive) | 15.4 µM (inactive) | 14.7 µM (inactive) | 14.5 µM (inactive) |  | 5.68 µM (inactive) |  |
| CC[C@](C)(O)C(=O)O[C@H]1C(=O)O[C@@H]2C[C@H]3C(C)=C[C@H](O)[C@@H](O)[C@]3(C)[C@H]3[C@@]4(O)OC[C@]32[C@@H]1[C@@H](C)[C@H]4O | 61.8 µM (inactive) | 27.5 µM (inactive) |  | 9.33 µM (inactive) | 58.2 µM | 7.19 µM (inactive) | 21.6 µM (inactive) | 14.5 µM (inactive) |  |  | 6.93 µM (inactive) | 17.7 µM (inactive) | 58.6 µM (inactive) | 4.34 µM (inactive) | 73.5 µM (inactive) | 9.79 µM (inactive) | 24.2 µM (inactive) |  | 7.85 µM (inactive) | 0.631 µM (active) |
| C=CC1=CC(C)C[C@]1(O)C(=O)OC (some centres undefined) | < 0.01 µM (active) | < 0.01 µM (active) |  | < 0.01 µM (active) | > 100 µM | < 0.01 µM (active) | < 0.01 µM (active) | < 0.01 µM (active) |  |  | < 0.01 µM (active) | < 0.01 µM (active) | < 0.01 µM (active) | < 0.01 µM (active) | < 0.01 µM (active) | < 0.01 µM (active) | < 0.01 µM (active) |  | < 0.01 µM (active) | < 0.01 µM (active) |
| Cc1cc(N)c2cc(NC(=O)CCCCCCCCC(=O)Nc3ccc4nc(C)cc(N)c4c3)ccc2n1 | 6.35 µM (inactive) | > 100 µM (inactive) |  | 36.3 µM (inactive) | > 100 µM | > 30.5 µM (inactive) | 5.57 µM (inactive) | 22.2 µM (inactive) |  |  | 5.07 µM (inactive) | 2.43 µM (inactive) | > 100 µM (inactive) | 5.53 µM (inactive) | 3.87 µM (inactive) | > 38.4 µM (inactive) | 32.9 µM (inactive) |  | 1.54 µM (inactive) | > 65.3 µM (inactive) |
| CN(CCNC(=S)c1cn(C)c2c1ccc1ccccc12)CCNC(=S)c1cn(C)c2c1ccc1ccccc12 | 64.3 µM (inactive) | > 100 µM (inactive) | 48.2 µM (inactive) | 67.9 µM (inactive) | > 100 µM | 29.4 µM (inactive) | 37.1 µM (inactive) | 18.5 µM (inactive) | 38.7 µM (inactive) |  | 24.7 µM (inactive) |  | 11.3 µM (inactive) |  | 40.9 µM (inactive) | > 100 µM (inactive) | 10.7 µM (inactive) | 3.74 µM (inactive) |  | 2.05 µM (inactive) |
| COc1ccc(Nc2nc3cc(C(F)(F)F)ccc3nc2C(=O)O)cc1OC | 41.3 µM (inactive) | 27 µM (inactive) | 15.4 µM (inactive) | 30.8 µM (inactive) | 35.6 µM | 36.5 µM (inactive) | 27.8 µM (inactive) | 28.9 µM (inactive) | 29 µM (inactive) |  | 20.1 µM (inactive) | 16.4 µM (inactive) | 35.4 µM (inactive) | 25.8 µM (inactive) | 21.5 µM (inactive) | 24 µM (inactive) | 62.7 µM (inactive) | 27.7 µM (inactive) | 28.4 µM (inactive) | 23.3 µM (inactive) |
| COc1ccc(-c2onc(-c3ccc([N+](=O)[O-])cc3)c2C2=NCCN2)cc1 | > 100 µM (inactive) | > 100 µM (inactive) |  | > 100 µM (inactive) | > 100 µM | > 100 µM (inactive) | > 100 µM (inactive) | 79.6 µM (inactive) |  |  | > 100 µM (inactive) | 95.1 µM (inactive) | 60.1 µM (inactive) | > 100 µM (inactive) | 67.5 µM (inactive) | 50.5 µM (inactive) | 20.9 µM (inactive) |  | > 100 µM (inactive) | 32.3 µM (inactive) |
| Nc1n[nH]c2nc3ccccc3nc12 [QUINOXALINE1] | 61.9 µM (inactive) | 31.9 µM (inactive) | 63.5 µM (inactive) | 73.3 µM (inactive) | 75.2 µM | 18.1 µM (inactive) |  | 47 µM (inactive) | > 100 µM (inactive) | > 100 µM (inactive) | 61.1 µM (inactive) | 91.8 µM (inactive) | > 100 µM (inactive) | 36.1 µM (inactive) | > 100 µM (inactive) | > 100 µM (inactive) | 37.1 µM (inactive) |  | 34.8 µM (inactive) | 27.9 µM (inactive) |
| CC(C)CNCCc1ccccn1 | > 100 µM (inactive) | > 100 µM (inactive) | > 100 µM (inactive) | > 100 µM (inactive) | > 100 µM | > 100 µM (inactive) | > 100 µM (inactive) | > 100 µM (inactive) | > 100 µM (inactive) | > 100 µM (inactive) |  | > 100 µM (inactive) | > 100 µM (inactive) |  | > 100 µM (inactive) | > 100 µM (inactive) | > 100 µM (inactive) |  | > 100 µM (inactive) | > 100 µM (inactive) |
